These are literature values, as cited in patent US7015235B2, “Acylated piperidine derivatives as melanocortin-4 receptor agonists” (priority 2001, dated 2006).

The structures appear in SMILES notation.

The test system of this series is men.

Turning to `Cc1ccc(N(CC2=NCCN2)c2cccc(O)c2)cc1` [phentolamine], for the setting “after an oral dose”, the duration of effect was 2 h and the onset of action was 5 to 30 min. Further, the “share of men/patients with adequate response” value (oral) is recorded as 35–40%.
